From patent publication US20050181117A1, “Stent coating method” (Medtronic Vascular, Inc., priority 2003, published 2005)

Test: percent drug eluted over time from coated stent
Format: physicochemical
Details: base coat podophyllotoxin, Cyclops-12, in THF; Cyclops-9 cap coat with THF as cap coat solvent (FIG. 6) vs acetone (FIG. 5)
From the text: The cap coating examples may be compatible with a variety of base coats of the present invention. In one embodiment, the cap coat provided by example 9 (e.g., Cyclops-9 in acetone) may be used with a base coat provided by example 6 (e.g., Resten-NG, PVPP, in methanol-water mix). The use of a cap coat may influence the release profile of the therapeutic agent, or drug. […] The stent is base coated with a Resten-NG, PVPP in methanol/water mixed solvent and (optionally) cap coated with a Cyclops-9 in acetone mixture.
In another embodiment, the cap coat provided by example 9 (e.g., Cyclops-9 in acetone or THF) may be used with a base coat provided by example 8 (e.g., podophyllotoxin, Cyclops-12, in THF). Depending on the solvent chosen for the cap coat (e.g., acetone or THF), a different drug release profile may be obtained. […] Thus, the drug release profile may be altered by using a different cap coat solvent.

Q: With `COc1cc([C@@H]2c3cc4c(cc3[C@H](O)[C@H]3COC(=O)[C@H]23)OCO4)cc(OC)c1OC` [podophyllotoxin] as the molecule, how does the “elution rate (percent drug eluted over time)” value read?
A: The value was “marked increase in elution rate”.
